From PMC7561186, “Rational design of balanced dual-targeting antibiotics with limited resistance” (PLoS Biology, 2020)
Several values for one entry are separate records, joined by “and”; a condition that tells them apart may be missing. Equal entries are not always repeated. Where two headings read alike, the source gives them in different places.

Tests used:
[1] = system: S. aureus ATCC 700699 (VISA); assay: microbe, parasite or virus in culture; type: cell-based; settings: Staphylococcus aureus, read-out: MIC in adapted strains
Protocol: Adaptive laboratory evolution experiments followed an established protocol for automated laboratory evolution and aimed to maximize the drug-resistance increment during a fixed time period. […] Experiments were conducted in 96-well plates, in MHBII medium, by utilizing a checkerboard layout to minimize and monitor cross-contamination. These 96-well deep-well plates (0.5 mL, polypropylene, V-bottom) were covered with sandwich covers (Enzyscreen BV) to ensure an optimal oxygen exchange rate and limit evaporation and were shaken at 150 rpm, 37 °C. […] Following cell transfer, each culture was allowed to grow for 48 hours. At each transfer, cell growth was monitored by measuring the OD600 in a BioTek Synergy 2 plate reader. […] Accordingly, only 1 of the 4 populations was retained for each independently evolving strain. This protocol was designed to avoid population extinction and to ensure that populations with the highest level of resistance are propagated further during adaptive evolution. […] Adaptation of populations was terminated after 20 transfers, i.e., 40 days. Following adaptation, cells from each final population were spread onto MHBII agar plates, and individual colonies were isolated. Next, one colony from each adapted line were subjected to capillary sequencing of gyrB and parE to assess their genotype.

[2] = system: S. aureus ATCC 700699 VISA; assay: Time-dependent killing; type: cell-based; settings: for Time-kill bacterial count: 10xMIC; for Colony numbers: time-kill raw counts, Samples 1-3
Protocol: Time-dependent killing experiments were performed as previously. S. aureus ATCC 700699 VISA cells were inoculated to MHBII agar plates and grown overnight at 37 °C. Next, 3 independent stationer-phase starter cultures were grown at 37 °C, 250 rpm overnight, in 3 × 1 mL MHBII broth. Next, 100-fold diluted cultures were prepared from each in 20 mL fresh MHBII medium and grown at 37 °C, 250 rpm until early exponential phase (OD600 = 0.3–0.4; i.e., 5 × 10^5 cells/mL). […] Cells were treated with antibiotics in Erlenmeyer flasks at 37 °C, 150 rpm for 48 hours. […] Next, 50 μL from each dilution were plated on MHBII agar plates, and plates were incubated overnight at 37 °C to calculate CFU per mL.

[3] = biological target: T1, S. aureus topoisomerase IV (Staphylococcus aureus, UniProt P0C1S7); assay: S. aureus topoisomerase IV gel-based assay; type: biochemical; settings: quadruplicates
T1 construct: purchased Inspiralis Ltd., Norwich, UK

[4] = system: S. aureus VISA ATCC 700699 GyrB / ParE mutants; assay: MIC of spontaneous resistant mutants (single-step and second-step); type: cell-based; settings: Staphylococcus aureus
Protocol: MICs were determined using a standard serial broth microdilution technique according to the CLSI guidelines. Briefly, bacterial strains were inoculated onto MHBII agar plates and were grown overnight at 37 °C. Next, 3 individual colonies from each strain were inoculated into 1 mL MHBII medium and propagated at 37 °C, 250 rpm overnight. In the cases of Enterococcus and Streptococcus sp., cells were plated to BHI agar plates, and BHI broth was used to determine MICs. […] Following dilutions, each well was seeded with 5×10^4 bacterial cells. All measurements were performed in 3 parallel replicates and to avoid possible edge effects in microwell plates, side rows (A and H) were filled with sterile medium. Following inoculations, plates were covered with lids and wrapped in polyethylene plastic bags to minimize evaporation but allow for O2 transfer. Plates were incubated at 37 °C under continuous shaking at 150 rpm for 18 hours. After incubation, OD600 of each well was measured using a BioTek Synergy 2 microplate reader.

[5] = cited from earlier work
Topoisomerase IV = settings: high-throughput relaxation assay ref 37; cited from earlier work

T1 sequence (P0C1S7 whole entry): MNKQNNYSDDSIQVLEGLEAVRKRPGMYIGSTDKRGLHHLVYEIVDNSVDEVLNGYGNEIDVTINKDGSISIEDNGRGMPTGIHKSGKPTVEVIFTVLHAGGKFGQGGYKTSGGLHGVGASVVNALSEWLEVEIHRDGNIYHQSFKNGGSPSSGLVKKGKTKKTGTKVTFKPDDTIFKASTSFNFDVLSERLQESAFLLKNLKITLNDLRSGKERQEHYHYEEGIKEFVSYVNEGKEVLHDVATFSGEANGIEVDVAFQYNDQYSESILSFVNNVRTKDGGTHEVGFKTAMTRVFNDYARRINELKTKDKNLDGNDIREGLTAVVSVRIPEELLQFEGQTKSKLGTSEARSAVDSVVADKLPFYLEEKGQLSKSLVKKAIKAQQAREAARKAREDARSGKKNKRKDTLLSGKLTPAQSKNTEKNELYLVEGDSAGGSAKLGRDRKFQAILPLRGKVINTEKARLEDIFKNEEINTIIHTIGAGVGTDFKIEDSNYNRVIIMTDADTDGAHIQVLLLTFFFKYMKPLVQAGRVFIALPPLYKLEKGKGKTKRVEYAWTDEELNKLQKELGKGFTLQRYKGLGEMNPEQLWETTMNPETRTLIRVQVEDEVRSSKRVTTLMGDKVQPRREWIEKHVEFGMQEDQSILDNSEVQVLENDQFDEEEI
T1 sequence (P0C1U9 whole entry, further chain): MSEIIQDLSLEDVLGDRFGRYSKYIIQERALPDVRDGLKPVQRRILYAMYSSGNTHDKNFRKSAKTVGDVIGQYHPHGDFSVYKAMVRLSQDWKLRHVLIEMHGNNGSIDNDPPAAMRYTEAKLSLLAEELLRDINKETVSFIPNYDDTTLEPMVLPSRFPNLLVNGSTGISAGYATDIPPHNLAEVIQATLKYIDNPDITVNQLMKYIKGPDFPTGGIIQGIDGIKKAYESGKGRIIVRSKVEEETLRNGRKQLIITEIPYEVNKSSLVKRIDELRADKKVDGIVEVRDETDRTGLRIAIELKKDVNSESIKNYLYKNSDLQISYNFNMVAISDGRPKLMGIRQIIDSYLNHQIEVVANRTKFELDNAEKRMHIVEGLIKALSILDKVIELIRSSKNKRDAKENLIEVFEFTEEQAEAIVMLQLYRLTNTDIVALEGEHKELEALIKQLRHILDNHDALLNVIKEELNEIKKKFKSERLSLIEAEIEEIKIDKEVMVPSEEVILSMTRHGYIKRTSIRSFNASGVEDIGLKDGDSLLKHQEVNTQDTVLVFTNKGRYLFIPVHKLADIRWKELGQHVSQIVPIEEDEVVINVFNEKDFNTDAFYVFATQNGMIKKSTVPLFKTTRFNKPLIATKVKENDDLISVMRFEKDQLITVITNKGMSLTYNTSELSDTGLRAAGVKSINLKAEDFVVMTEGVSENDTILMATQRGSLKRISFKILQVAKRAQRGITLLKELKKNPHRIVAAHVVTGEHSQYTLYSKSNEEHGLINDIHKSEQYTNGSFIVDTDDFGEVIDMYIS

Question: For CO[C@@H]1[C@@H](OC(N)=O)[C@@H](O)[C@H](Oc2ccc3c(O)c(NC(=O)c4ccc(O)c(CC=C(C)C)c4)c(=O)oc3c2C)OC1(C)C [Novobiocin], which MIC [1] is on record?
Answer: Its MIC is 16 mg/L.

Question: And the Time-kill bacterial count ([2]; time 0 hour)?
Answer: Its Time-kill bacterial count is 2.80E+05.

Question: And the Time-kill bacterial count ([2]; time 3 hour)?
Answer: The Time-kill bacterial count was 9.90E+04.

Question: And the Time-kill bacterial count ([2]; time 6 hour)?
Answer: The Time-kill bacterial count was 4.70E+04.

Question: What about the Time-kill bacterial count ([2]; time 12 hour) of the same molecule?
Answer: Its Time-kill bacterial count is 5.80E+03.

Question: What about the Time-kill bacterial count ([2]; time 18 hour) of the same molecule?
Answer: The Time-kill bacterial count was 1.50E+03.

Question: What about the Time-kill bacterial count ([2]; time 24 hour) of the same molecule?
Answer: The Time-kill bacterial count was 8.00E+02.

Question: What about the Time-kill bacterial count ([2]; time 48 hour) of the same molecule?
Answer: Its Time-kill bacterial count is 6.40E+02.

Question: What about the Colony numbers ([2]; time 0 h, Dilution 100) of the same molecule?
Answer: The Colony numbers was 145 and 132 and 137.

Question: And the Colony numbers ([2]; time 3 h, Dilution 100)?
Answer: The Colony numbers was 63 and 38 and 48.

Question: And the Colony numbers ([2]; time 6 h, Dilution 100)?
Answer: Its Colony numbers is 21 and 29.

Question: What about the Colony numbers ([2]; time 12 h, Dilution 10) of the same molecule?
Answer: Its Colony numbers is 33 and 23 and 31.

Question: What about the Colony numbers ([2]; time 18 h, Dilution 1) of the same molecule?
Answer: Its Colony numbers is 81 and 65 and 84.

Question: And the IC50 [3]?
Answer: The IC50 was 2 µM.

Question: What about the MIC ([4]; VISA GyrB I175T) of the same molecule?
Answer: The MIC was 0.032 mg/L.

Question: What about the MIC ([4]; VISA GyrB R144G) of the same molecule?
Answer: Its MIC is 4 mg/L.

Question: What about the MIC ([4]; VISA GyrB R144I) of the same molecule?
Answer: Its MIC is 8 mg/L.

Question: And the MIC ([4]; VISA wt, read-out: MIC)?
Answer: Its MIC is 0.05 mg/L.

Question: For O=c1ccc2ncc(=O)n3c2n1C[C@H]3CN1CCC(NCc2cc3c(cn2)OCCC3)CC1 [Gepotidacin], which “increment in resistance level by combination of 2 specific target mutations” value [5] is on record?
Answer: The value was 2,000 fold.

Question: What about the “resistance level (MIC) of double target mutant” value [5] of the same molecule?
Answer: Its value is 256 mg/L.

Question: With O=C(O)C(=O)Nc1ccc2nc(NC(=O)c3cc(Br)c(Br)[nH]3)sc2c1 [ULD0] as the molecule, how does the IC50 (Topoisomerase IV) read?
Answer: Its IC50 is 10 ± 2 µM.
